In publication PMC11636681, “Pharmacokinetics and pharmacodynamics of antibacterial peptide NZX in Staphylococcus aureus mastitis mouse model” (Applied Microbiology and Biotechnology, 2024):
Positions of bridges follow the written chain, without caps; N, C: chain ends. Residues, ends and D or L forms follow the SMILES beside them.

Experiment: Stability of NZX in milk
Assay type: in vitro ADME
Conditions: 100 μg/mL in milk, 37 °C, SPE then HPLC–UV 280 nm, mean peak area / initial value, read-out: retention rate in milk
Description: A 0.5 g of mammary tissue or milk were weighed, homogenized, and transferred to a 10 mL polypropylene centrifuge tube, respectively, extracted sequentially by adding into a 3 mL of 0.1 M of McFarland buffer and 1% trichloroacetic acid (TCA), and cleaned by a C18 solid-phase extraction (SPE) cartridge (Oasis MAX 3 cc 60 mg and Oasis HLB 3 cc 60 mg, respectively, Waters, USA). Afterwards, a 2 mL of 45% acetonitrile with 2% formic acid and 3 mL of 45% acetonitrile were used to elute the columns, respectively, the collected eluents were freeze-dried and dissolved in 200 µL of deionized water and filtered by a […] sterile filter membrane before the analysis of high-performance liquid chromatography-ultraviolet (HPLC–UV). The HPLC–UV with a C18 reverse-phase column (ZORBAX Eclipse Plus C18 4.6 mm × 250 mm, 5 µm) conditions for detecting NZX were as follows: the mobile phase consisted of A: 0.1% trifluoroacetate […] in acetonitrile and B: 0.1%TFA in water; the injection volume was 40 μL; the wavelength of UV detector was 280 nm; flow rate was 1.0 mL/min; the column temperature was 35 °C, and the elution was conducted with a linear gradient of 20–45% mobile phase A for 16 min. The linear relationship, limits of detection (LOD), limits of quantitation (LOQ), accuracy and precision were determined by adding the known concentrations of NZX into the extracted blank matrix of mammary gland. Each concentration was conducted three times.
A 100 μg/mL of NZX was suspended in mammary gland tissue homogenate or milk, respectively, and then incubated at 37 °C for 0, 8, 16 and 24 h, respectively. Afterwards, samples were pretreated and quantified as the above methods. The results were expressed as a ratio of the mean peak area measured at different times divided by the mean value of the initial value.

For `CC[C@H](C)[C@@H]1NC(=O)[C@H](CO)NC(=O)[C@H](CCCCN)NC(=O)[C@@H]2CSSC[C@@H](C(=O)N[C@@H](Cc3ccc(O)cc3)C(=O)O)NC(=O)[C@H](CCCCN)NC(=O)[C@@H]3CSSC[C@H](NC(=O)[C@H](CCC(N)=O)NC(=O)[C@H]([C@@H](C)CC)NC(=O)[C@H](CC(=O)O)NC(=O)[C@H](CC(=O)O)NC(=O)[C@H](CCC(=O)O)NC(=O)[C@H](CO)NC(=O)[C@H](Cc4c[nH]c5ccccc45)NC(=O)[C@@H]4CCCN4C(=O)CNC(=O)[C@H](CC(N)=O)NC(=O)[C@@H](NC(=O)CNC(=O)[C@H](Cc4ccccc4)NC(=O)CN)CSSC[C@H](NC(=O)[C@H](Cc4ccc(O)cc4)NC(=O)CNC(=O)CNC(=O)[C@H](CCCCN)NC(=O)[C@H](Cc4ccc(O)cc4)NC(=O)CNC(=O)[C@H](CCCCN)NC1=O)C(=O)N[C@@H](C)C(=O)N[C@@H](CCCNC(=N)N)C(=O)NCC(=O)NCC(=O)N[C@@H](Cc1ccccc1)C(=O)N[C@@H](C(C)C)C(=O)N3)C(=O)N[C@@H](Cc1c[nH]cn1)C(=O)N[C@@H](CC(N)=O)C(=O)N[C@@H](Cc1c[nH]cn1)C(=O)N2` [NZX] (H-GFGCNGPWSEDDIQCHNHCKSIKGYKGGYCARGGFVCKCY-OH; disulfide 4-30, 15-37, 19-39; N-terminus and C-terminus assumed), the remaining at 8 h, 100 μg/mL (8 h) was 103%, the remaining at 16 h, 100 μg/mL (16 h) was 91.8% and the remaining at 24 h, 100 μg/mL (24 h) was 85.4%.
